Measurements as given in US20240400547A1, “2,6-PIPERIDINEDIONE COMPOUND AND APPLICATION THEREOF” (MEDSHINE DISCOVERY INC., priority 2021, published 2024).
Structures can show the parent of a compound that is named as a salt. Where two headings read alike, the source gives them in different places. Each block holds one compound with its values, some of them ahead of it.

Experiments:
[1] = Pharmacokinetic evaluation in mice; format: in vivo, C57BL/6N or CD-1 male mice; conditions: for Vd / half-life / clearance / bioavailability: male, plasma; for Vd: read-out: Apparent volume of distribution; for half-life: read-out: Elimination half-life (converted); for clearance: read-out: Plasma clearance rate; for bioavailability: po, read-out: Bioavailability F
Source text: In this study, C57BL/6N or CD-1 male mice were selected as test animals, and LC/MS/MS method was used to quantify plasma concentrations of the test compound intravenously injected or gavage to mice at different time points, so as to evaluate the pharmacokinetic profile of the compounds of the present disclosure in mice.
C57BL/6N mice (male, 20 to 30 g, 7 to 10 weeks old, Beijing VitalRiver) or CD-1 mice (male, 20 to 35 g, 7 to 10 weeks old, Beijing VitalRiver).
• The test compounds, either as clear or suspension solutions, were administered intravenously through the tail vein to C57BL/6N mice or CD-1 mice (either fasted overnight or fed) (vehicle: 10% DMSO/10% solutol/80% H2O or 5% DMSO/10% solutol/85% H2O), or intragastrically administered to C57BL/6N mice or CD-1 mice (either fasted overnight or fed). For intravenous injection, blood 50 μL was collected via the cheek vein puncture at 0 h (pre-administration), 0.083, 0.25, 0.5, 1, 2, 4, 6, 8, and 24 h after administration, and placed in an anticoagulant tube added with heparin sodium. The mixture was thoroughly vortexed and mixed, and centrifuged at 6000 g for 3 minutes at 2-8° C. For oral administration, blood was collected via the cheek vein puncture at 0 h (pre-administration), 0.083, 0.25, 0.5, 1, 2, 4, 6, 8, and 24 h after administration, and placed in an anticoagulant tube added with heparin sodium. The mixture was thoroughly vortexed and mixed, and centrifuged at 6000 g for 3 minutes at 2-8° C. Plasma concentrations were determined by LC-MS/MS method, and relevant pharmacokinetic parameters were calculated using Phoenix WinNonlin8.2.0 pharmacokinetic software with non-compartmental model linear-log trapezoidal method.
• The test compounds, as clear solutions, were administered intravenously through the tail vein to CD-1 mice (fasted overnight) (vehicle: 10% DMSO/10% solutol/80% H2O or 5% DMSO/10% solutol/85% H2O), or intragastrically administered to CD-1 mice (fasted overnight). For intravenous injection, blood was collected via the saphenous vein puncture at 0 h (pre-administration), 0.083, 0.25, 0.5, 1, 2, 4, 8, and 24 h after administration, and placed in a EDTA-K2 anticoagulant tube. The mixture was thoroughly vortexed and mixed, and centrifuged at 3200 g for 10 minutes at 4° C. to obtain plasma. For oral administration, blood was collected via the saphenous vein puncture at 0 h (pre-administration), 0.083, 0.25, 0.5, 1, 2, 4, 8, and 24 h after administration, and placed in a EDTA-K2 anticoagulant tube. The mixture was thoroughly vortexed and mixed, and centrifuged at 3200 g for 10 minutes at 4° C. to obtain plasma. Plasma concentrations were determined by LC-MS/MS method, and relevant pharmacokinetic parameters were calculated using Phoenix WinNonlin 6.3 pharmacokinetic software with non-compartmental model linear-log trapezoidal method.

[2] = system: human lymphoma SU-DHL-2 cells; test: In vivo efficacy in CB17 SCID mouse model with subcutaneous xenograft tumors of human lymphoma SU-DHL-2 cells; set-up: species or system CB17 SCID mice; conditions: for Tumor volume (Day 0): Day 0 (grouping, baseline); for Tumor volume (Day 0) / Tumor volume (Day 21): average, SEM in next grid line
Method: The study evaluates the antitumor effect of the test compounds using a CB17 SCID mouse model with subcutaneous xenograft tumors of SU-DHL-2 human lymphoma cells.
• 1. Experimental animals: CB17 SCID mice, female, 6 to 8 weeks old, weighing 18 to 22 g. Beijing Vital River Laboratory Animal Technology Co., Ltd. • 2. Cell line: human lymphoma SU-DHL-2 cells (Cat. No ATCC-CRL-2956).
Cell culture: Human lymphoma SU-DHL-2 cells (ATCC-CRL-2956) were cultured in suspension in vitro. The culture conditions were RPMI 1640 medium with […] fetal bovine serum, 100 U/mL penicillin and 100 μg/mL streptomycin, and cultured in a 37° C., […] incubator. Routine passaging was performed twice a week. When the cell saturation reached […] and the quantity met the requirements, the cells were collected, counted, and seeded.
Tumor cell seeding and grouping: 0.2 mL (10×10^6 cells) of SU-DHL-2 cells, in a PBS:Matrigel=1:1 mixture, were subcutaneously inoculated into the right dorsal flank of each mouse. When the average tumor volume reached approximately 139 mm^3, the animals were divided into groups for drug administration. The day of grouping was recorded as Day 0, and dosing began according to the body weight of the animals.
The pharmacological experiment consisted of a dosing cycle of seven days, with medication administered once daily at a 24-hour interval. The test compounds were given intragastrically, with a total of three dosing cycles. During the experiment, the body weight and tumor size of the animals were measured twice a week, and clinical symptoms were observed and recorded daily.
The dosing for the test compounds were 10 mg/kg, 30 mg/kg, and 100 mg/kg, with a solvent composition of 10% DMSO/10% Solutol/80% water. The formula for calculating tumor volume (TV) was: 1/2×a×b^2, where a and b were the measured length and width of the tumor, respectively. The formula for calculating the Tumor Growth Inhibition (TGI) rate was: TGI (%)=[(1−(average tumor volume at the end of administration in a treatment group average tumor volume at the beginning of administration in this treatment group))/(average tumor volume at the end of treatment in the vehicle control group−average tumor volume at the beginning of treatment in the vehicle control group)]×100%. Relative Tumor Proliferation rate T/C (%): the calculation formula was as follows: T/C %=TRTV/CRTV×100% (TRTV: average RTV of the treatment group; CRTV: average RTV of the negative control group). According to the results of tumor measurement, the relative tumor volume (RTV) was calculated, and the calculation formula was RTV=Vt/V0, where V0 was the tumor volume measured at the time of group administration (i.e. Day 0), VT was the tumor volume at a certain measurement, and TRTV and CRTV were taken from the same day's data.
Statistical analysis is based on the data of RTV at the end of the experiment and analyzed by SPSS software. For comparisons between two groups, a T test was used. For comparisons among three or more groups, one-way ANOVA was utilized. If the variance was homogenous (no significant difference in F value), Tukey's method was applied for analysis. If the variance was heterogeneous (significant difference in F value), the Games-Howell method was used for testing. A p-value of <0.05 was considered statistically significant.

[3] = intragastric administration 10 mg/kg, experimental operation B, fasted overnight
[4] = intragastric administration 10 mg/kg, experimental operation A, fed
[5] = 10 mg/kg intragastric once daily
[6] = 30 mg/kg intragastric once daily
[7] = 100 mg/kg intragastric once daily
[8] = intragastric administration 10 mg/kg, experimental operation A, fasted overnight
[9] = mouse, intravenous injection 2 mg/kg, experimental operation A, fasted overnight
[10] = intravenous injection 2 mg/kg, experimental operation B, fasted overnight
[11] = CD-1, mouse, intravenous injection 2 mg/kg, experimental operation B, fasted overnight
[12] = CD-1, mouse, intragastric administration 10 mg/kg, experimental operation B, fasted overnight

Area under drug-time curve (0-inf) [1, 3]: 2.00 µM·h
Peak concentration [1, 3]: 0.64 µM
Time to peak concentration [1, 3]: 1.00 h
Compound: O=C1CCC(c2coc3cc(NC(=O)CN4CCN(C[C@H]5CC[C@H](N6CC(NC(=O)c7coc(-c8ccnc(NCC9CC9)c8)n7)C(C(F)F)N6)CC5)CC4)ccc23)C(=O)N1 (stereo partly shown) [Hydrochloride of WX002]

Area under drug-time curve (0-inf) [1, 8]: 5.00 µM·h
Peak concentration [1, 8]: 0.45 µM
Time to peak concentration [1, 8]: 1.67 h
Area under drug-time curve (0-inf) ([1]; intravenous injection 2 mg/kg, experimental operation A, fasted overnight): 15.31 µM·h
Vd [1, 9]: 1.8 L/kg
half-life [1, 9]: 9.45 h
clearance [1, 9]: 2.76 mL/min/kg
bioavailability ([1]; mouse, intragastric administration 10 mg/kg, experimental operation A, fasted overnight): 6.53%
Compound: O=C1CCC(c2coc3ccc4c(NC(=O)CN5CCN(C[C@H]6CC[C@H](n7cc(NC(=O)c8coc(-c9ccnc(NCC%10CC%10)c9)n8)c(C(F)F)n7)CC6)CC5)cccc4c23)C(=O)N1 (stereo partly shown) [Trifluoroacetate of WX011]

Area under drug-time curve (0-inf) [1, 3]: 1.01 µM·h
Peak concentration [1, 3]: 0.09 µM
Time to peak concentration [1, 3]: 6.00 h
Area under drug-time curve (0-inf) [1, 10]: 3.06 µM·h
Vd [1, 11]: 4.39 L/kg
half-life [1, 11]: 5.22 h
clearance [1, 11]: 11.8 mL/min/kg
bioavailability [1, 12]: 6.59%
Compound: O=C1CCC(c2noc3ccc4c(NC(=O)C(F)(F)C5CCN(CC6CCC(n7cc(NC(=O)c8coc(-c9ccnc(NCC%10CC%10)c9)n8)c(C(F)F)n7)CC6)CC5)cccc4c23)C(=O)N1 (stereo not shown) [Hydrochloride of WX018]

The remaining lines, values behind:

Compound: O=C1CCC(c2noc3ccc4c(NC(=O)CN5CCN(C[C@H]6CC[C@H](n7cc(NC(=O)c8coc(-c9ccnc(NCC%10CC%10)c9)n8)c(C(F)F)n7)CC6)CC5)cccc4c23)C(=O)N1 (stereo partly shown) [Hydrochloride of WX014]
Area under drug-time curve (0-inf) [1, 4]: 4.47 µM·h
Peak concentration [1, 4]: 0.54 µM
Time to peak concentration [1, 4]: 1.00 h
Area under drug-time curve (0-inf) ([1]; intravenous injection 2 mg/kg, experimental operation A, fed): 5.40 µM·h
Tumor volume (Day 0) [2, 5]: 139 mm^3
T/C (%) (Day 21) [2, 5]: 42.33%
TGI (%) (Day 21) [2, 5]: 62.13%
Tumor volume (Day 21) [2, 5]: 800 mm^3
Tumor volume (Day 0) [2, 6]: 139 mm^3
T/C (%) (Day 21) [2, 6]: 42.26%
TGI (%) (Day 21) [2, 6]: 61.41%
Tumor volume (Day 21) [2, 6]: 813 mm^3
Tumor volume (Day 0) [2, 7]: 139 mm^3
T/C (%) (Day 21) [2, 7]: 33.23%
TGI (%) (Day 21) [2, 7]: 72.07%
Tumor volume (Day 21) [2, 7]: 626 mm^3

Compound: CC(C)(O)c1cc2nc(C3CCC(CN4CCN(CC(=O)Nc5cccc6c5ccc5onc(C7CCC(=O)NC7=O)c56)CC4)CC3)sc2cc1NC(=O)c1cccc(C(F)(F)F)n1 (stereo not shown) [Formate of WX017]
Area under drug-time curve (0-inf) [1, 3]: 5.07 µM·h
Peak concentration [1, 3]: 0.65 µM
Time to peak concentration [1, 3]: 4.00 h
Area under drug-time curve (0-inf) [1, 10]: 3.17 µM·h
Vd [1, 11]: 2.59 L/kg
half-life [1, 11]: 2.32 h
clearance [1, 11]: 12.2 mL/min/kg
bioavailability [1, 12]: 31.9%
